Source: patent EP4603105A1, “PHARMACEUTICAL COMPOSITION CONTAINING CYCLIC COMPOUND HAVING SELECTIVE KRAS INHIBITORY EFFECT AGAINST HRAS AND NRAS” (CHUGAI SEIYAKU KABUSHIKI KAISHA, priority 2022, dated 2024)
*1 amine or outer side, *2 acyl side, *3 side chain or, on linkers, in order; H or OH if unused. Where a SMILES comes first, the peptide text is derived from it. Bridges are numbered along the chain shown (N, C = ends). [ ]: non-standard residue; d: D form. The star is where a group is joined. hPhe(3-Cl-4-CF3) = N[C@@H](CCc1ccc(C(F)(F)F)c(Cl)c1)C(=O)O; NPrPhe(4-CF3) = CCCN[C@@H](Cc1ccc(C(F)(F)F)cc1)C(=O)O; X40 = Cc1ccc(C[C@@H](C(=O)[*:2])N(CC(C)C)[*:1])cc1; Piperazinyl(4-(3-oxetanyl)) = C1OCC1N1CCN(*)CC1; NMeGly(cPent) = CN[C@H](C(=O)O)C1CCCC1; Pro(4,4-F2) = O=C(O)[C@@H]1CC(F)(F)CN1; Pro(4,4-Me2) = CC1(C)CN[C@H](C(=O)O)C1; NMeD = CN[C@@H](CC(=O)O)C(=O)O; NMeL = CN[C@@H](CC(C)C)C(=O)O; Morpholide = C1CN(*)CCO1; NMeA = CN[C@@H](C)C(=O)O; Ac5c = NC1(C(=O)O)CCCC1; Aze = O=C(O)[C@@H]1CCN1; Ac4c = NC1(C(=O)O)CCC1; Sar = CNCC(=O)O

What was measured:
[1] = target: HRAS wild-type protein (Homo sapiens, UniProt P01112); assay: Binding to HRAS by surface plasmon resonance (SPR), KD and KD ratio to KRAS
How it was run: (§1)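 Biotinylated GDP-bound RAS was captured at about 100–300 RU. Running buffer: HBS pH 7.4, 10 mM MgCl2, 10 µM GDP, 1 mM DTT, 0.01% Tween 20, 4% DMSO.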

[2] = target: GDP-bound NRAS wild-type protein (Homo sapiens, UniProt P01111); assay: Binding to NRAS by surface plasmon resonance (SPR), KD and KD ratio to KRAS
How it was run: as §1

[3] = tested on: human lung cancer strain NCI-H441; assay type: cell-based
How it was run: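 Step one: dispense the test compound in serial DMSO dilutions. Step three: add the reagent and measure […].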

[4] = ratio of the KD value with respect to HRAS wild-type protein to the KD value with respect to KRAS
[5] = ratio of the KD value with respect to GDP-bound NRAS wild-type protein to the KD value with respect to KRAS
[6] = ratio of KD for HRAS wild-type protein to KD for KRAS
[7] = ratio of KD for GDP-bound NRAS wild-type protein to KD for KRAS
[8] = ratio of KD value for HRAS wild-type protein to KD value for KRAS (SPR)
[9] = ratio of KD value for GDP-bound NRAS wild-type protein to KD value for KRAS (SPR)

Chain of GDP-bound NRAS wild-type protein (P01111 whole entry): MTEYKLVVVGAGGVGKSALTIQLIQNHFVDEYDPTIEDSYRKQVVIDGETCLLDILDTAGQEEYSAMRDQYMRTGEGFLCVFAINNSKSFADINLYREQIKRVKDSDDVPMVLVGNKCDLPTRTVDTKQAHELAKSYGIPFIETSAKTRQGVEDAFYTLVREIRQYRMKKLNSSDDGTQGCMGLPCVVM
Chain of HRAS wild-type protein (P01112 whole entry): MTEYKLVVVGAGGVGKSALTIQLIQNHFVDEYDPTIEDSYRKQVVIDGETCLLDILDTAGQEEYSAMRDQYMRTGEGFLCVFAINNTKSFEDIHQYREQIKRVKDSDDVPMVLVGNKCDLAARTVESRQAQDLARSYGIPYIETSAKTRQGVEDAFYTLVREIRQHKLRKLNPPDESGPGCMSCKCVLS

SMILES	HRAS /KRAS [1, 4]	NRAS /KRAS [2, 5]	IC50 [3]	HRAS /KRAS [1, 6]	NRAS /KRAS [2, 7]	HRAS /KRAS [1, 8]	NRAS /KRAS [2, 9]
CCCN1C(=O)[C@@H]2CCN2C(=O)[C@H](C)N(C)C(=O)[C@H]([C@@H](C)CC)NC(=O)[C@H](CC(C)C)N(C)C(=O)C[C@@H](C(=O)N2CCOCC2)N(C)C(=O)[C@H](C2CCCC2)N(C)C(=O)C2(CCCC2)NC(=O)[C@@H]2CC(C)(C)CN2C(=O)[C@H](CCc2ccc(C(F)(F)F)c(Cl)c2)NC(=O)CN(C)C(=O)[C@@H]1Cc1ccc(C(F)(F)F)cc1 [PP0454] ([NMeL]I[NMeA][Aze][NPrPhe(4-CF3)][Sar][hPhe(3-Cl-4-CF3)][Pro(4,4-Me2)][Ac5c][NMeGly(cPent)][NMeD]-Morpholide; lactam N-11)	C (A compound having a KD ratio of 0.1 or more and less than 3 is denoted as C)	C (A compound having a KD ratio of 0.1 or more and less than 3 is denoted as C)	2.9 nM				
CCO[C@@H]1C[C@H]2C(=O)NC3(CCC3)C(=O)N(C)[C@@H](C3CCCC3)C(=O)N(C)[C@H](C(=O)N(C)C)CC(=O)N(C)[C@@H](CC)C(=O)N[C@@H]([C@@H](C)CC)C(=O)N(C)CC(=O)N(C)[C@H]3C[C@H]4C[C@H]4CN(C3=O)[C@@H](Cc3ccc(C(F)(F)F)cc3)C(=O)N(C)CC(=O)N[C@@H](CCc3cc(F)c(C(F)(F)F)c(F)c3)C(=O)N2C1 [PP0830]			3.4 nM	C (A compound having a KD ratio of 0.1 or more and less than 3 is denoted as C)	C (A compound having a KD ratio of 0.1 or more and less than 3 is denoted as C)		
CCCN1C(=O)CN(C)C(=O)CNC(=O)[C@H]([C@@H](C)CC)NC(=O)[C@H](CC(C)C)N(C)C(=O)C[C@@H](C(=O)N2CCOCC2)N(C)C(=O)[C@H](C2CCCC2)N(C)C(=O)C2(CCC2)NC(=O)[C@@H]2CC(F)(F)CN2C(=O)[C@H](CCc2ccc(C(F)(F)F)c(Cl)c2)NC(=O)CN(C)C(=O)[C@@H]1Cc1ccc(C(F)(F)F)cc1 [PP0395] ([NMeL]IG[Sar][NPrPhe(4-CF3)][Sar][hPhe(3-Cl-4-CF3)][Pro(4,4-F2)][Ac4c][NMeGly(cPent)][NMeD]-Morpholide; lactam N-11)	C (A compound having a KD ratio of 0.1 or more and less than 3 is denoted as C)	B (a compound having 3 or more and less than 10 is denoted as B)	0.8 nM				
CCC[C@H]1C(=O)N[C@@H]([C@@H](C)CC)C(=O)N(C2CC2)CC(=O)N(C)[C@H]2C/C=C\CCN(C2=O)[C@@H](Cc2ccc(C(F)(F)F)cc2)C(=O)N(C)CC(=O)N[C@@H](CCc2ccc(C(F)(F)F)c(OC)c2)C(=O)N2C[C@H](OCC)C[C@H]2C(=O)NC2(CC(C)(C)C2)C(=O)N(C)[C@@H](CC2CCC2)C(=O)N(C)[C@H](C(=O)N(C)C)CC(=O)N1C [PP2770]			137 nM	A (a compound having 10 or more and less than 20 is denoted as A)	A (a compound having 10 or more and less than 20 is denoted as A)		
CCCN(C)C(=O)[C@@H]1CC(=O)N(C)[C@@H](CC2CC2)C(=O)N[C@@H]([C@@H](C)CC)C(=O)N(C)CC(=O)N(C)[C@H]2C/C=C\CCN(C2=O)[C@@H](Cc2ccc(C(F)(F)F)cc2)C(=O)N(C)CC(=O)N[C@@H](CCc2cc(F)c(C(F)(F)F)c(F)c2)C(=O)N2C[C@H](F)C[C@H]2C(=O)NC2(CC(C)(C)C2)C(=O)N(C)[C@@H](C2CCCC2)C(=O)N1C [PP1665]			3.1 nM			A (a compound having 10 or more and less than 20 is denoted as A)	AA (a compound having 20 or more is denoted as AA)
CCO[C@@H]1C[C@H]2C(=O)NC3(CCCC3)C(=O)N(C)[C@@H](C3CCCC3)C(=O)N(C)[C@H](C(=O)N(C)C)CC(=O)N(C)[C@@H](CC(C)C)C(=O)N[C@@H]([C@@H](C)CC)C(=O)N(C)CC(=O)N(C)[C@H]3C[C@@H](C)CCN(C3=O)[C@@H](Cc3ccc(C(F)(F)F)cc3)C(=O)N(C)CC(=O)N[C@@H](CCc3cc(F)c(C(F)(F)F)c(F)c3)C(=O)N2C1 [PP1017]			5 nM	B (a compound having 3 or more and less than 10 is denoted as B)	C (A compound having a KD ratio of 0.1 or more and less than 3 is denoted as C)		
CCO[C@@H]1C[C@H]2C(=O)NC3(CCC3)C(=O)N(C)[C@@H](C3CCCC3)C(=O)N(CC)[C@H](C(=O)N(C)C)CC(=O)N(C)[C@@H](CC)C(=O)N[C@@H]([C@@H](C)CC)C(=O)N(C)CC(=O)N(C)[C@H]3CCCCCN(C3=O)[C@@H](Cc3ccc(C(F)(F)F)cc3)C(=O)N(C)CC(=O)N[C@@H](CCc3cc(F)c(C(F)(F)F)c(F)c3)C(=O)N2C1 [PP0633]	B (a compound having 3 or more and less than 10 is denoted as B)	B (a compound having 3 or more and less than 10 is denoted as B)	116 nM				
CCCN1C(=O)CN(C)C(=O)CN(C)C(=O)[C@H]([C@@H](C)CC)NC(=O)[C@H](CC(C)C)N(C)C(=O)C[C@@H](C(=O)N2CCN(C3COC3)CC2)N(C)C(=O)[C@H](C2CCCC2)N(C)C(=O)C2(CCCC2)NC(=O)[C@@H]2CCCN2C(=O)[C@H](CCc2ccc(C(F)(F)F)c(Cl)c2)NC(=O)CN(C)C(=O)[C@@H]1Cc1ccc(C(F)(F)F)cc1 [PP0175] ([NMeL]I[Sar][Sar][NPrPhe(4-CF3)][Sar][hPhe(3-Cl-4-CF3)]P[Ac5c][NMeGly(cPent)][NMeD]-{Piperazinyl(4-(3-oxetanyl))}; lactam N-11)			6.6 nM	B (a compound having 3 or more and less than 10 is denoted as B)	B (a compound having 3 or more and less than 10 is denoted as B)		
CCO[C@@H]1C[C@H]2C(=O)NC3(CCC3)C(=O)N(C)[C@@H](C3CCCC3)C(=O)N(C)[C@H](C(=O)N(C)C)CC(=O)N(C)[C@@H](CC(F)(F)F)C(=O)N[C@@H]([C@@H](C)CC)C(=O)N(C)CC(=O)N(C)[C@H]3C/C=C\CCN(C3=O)[C@@H](Cc3ccc(C(F)(F)F)cc3)C(=O)N(C)CC(=O)N[C@@H](CCc3cc(F)c(C(F)(F)F)c(F)c3)C(=O)N2C1 [PP1124]			12.4 nM	B (a compound having 3 or more and less than 10 is denoted as B)	A (a compound having 10 or more and less than 20 is denoted as A)		
CC[C@H](C)[C@@H]1NC(=O)[C@H](CC(C)C)N(C)C(=O)C[C@@H](C(=O)N2CCOCC2)N(C)C(=O)[C@H](C2CCCC2)N(C)C(=O)C2(CCCC2)NC(=O)[C@@H]2CCCN2C(=O)[C@H](CCc2ccc(C(F)(F)F)c(Cl)c2)NC(=O)CN(C)C(=O)[C@H](Cc2ccc(C)cc2)N(CC(C)C)C(=O)[C@@H]2CCN2C(=O)[C@H](C)N(C)C1=O [PP0056] ([NMeL]I[NMeA][Aze][X40][Sar][hPhe(3-Cl-4-CF3)]P[Ac5c][NMeGly(cPent)][NMeD]-Morpholide; lactam N-11)			49.6 nM	B (a compound having 3 or more and less than 10 is denoted as B)	C (A compound having a KD ratio of 0.1 or more and less than 3 is denoted as C)		
CCO[C@@H]1C[C@H]2C(=O)NC3(CC(C)(C)C3)C(=O)N(C)[C@@H](C(CC)CC)C(=O)N(C)[C@H](C3CCC3)CC(=O)N(C)[C@@H](CC3CC3)C(=O)N[C@@H]([C@@H](C)CC)C(=O)N(C)CC(=O)N(C)[C@H]3C/C=C\CCN(C3=O)[C@@H](Cc3ccc(C(F)(F)F)cc3)C(=O)N(C)CC(=O)N[C@@H](CCc3cc(F)c(C(F)(F)F)c(F)c3)C(=O)N2C1 [PP1634]			144 nM			A (a compound having 10 or more and less than 20 is denoted as A)	A (a compound having 10 or more and less than 20 is denoted as A)
